In US9764031B2 (priority 2010, dated 2017):

Test system: IL-12
Set-up: species or system mice
Details: mouse, in vivo

In the case of `CCOCc1nc2c(N)nc3ccccc3c2n1CC(C)(C)O` [R848, Resiquimod], the “peak level of systemic IL-12, free agonist higher than NC-coupled agonist” value was 30 fold.
